Assay results taken from PubChem BioAssay AID1963832 (Molecular Pharmacology Branch, DTP, NCI, 2024).

Tested on: 885724-159-R-J1-PDC complex spheroid viability
Assay: Anticancer human tumor 885724-159-R-J1-PDC patient-derived pancreatic adenocarcinoma cell line growth inhibition [POLQ]
Settings: for IC50: curve of first compound; for viability, T/C: stronger effect = lower value
Summary of the method: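 PDC + HUVEC + MSC complex spheroids; POLQ inhibitors ± partner drugs; top conc. at/near clinical Cmax, else 10 microM (SN-38 1 microM), half-log dilutions; 37 degrees C, 5% CO2.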

[1] = second compound 0.0316 µM, first compound 0.0316 µM
[2] = second compound 0.0316 µM, first compound 0.1 µM
[3] = second compound 0.0316 µM, first compound 0.316 µM
[4] = second compound 0.0316 µM, first compound 1 µM
[5] = second compound 0.0316 µM, first compound 3.16 µM
[6] = second compound 0.0316 µM, first compound 10 µM
[7] = second compound 0.1 µM, first compound 0.0316 µM
[8] = second compound 0.1 µM, first compound 0.1 µM
[9] = second compound 0.1 µM, first compound 0.316 µM
[10] = second compound 0.1 µM, first compound 1 µM
[11] = second compound 0.1 µM, first compound 3.16 µM
[12] = second compound 0.1 µM, first compound 10 µM
[13] = second compound 0.316 µM, first compound 0.0316 µM
[14] = second compound 0.316 µM, first compound 0.1 µM
[15] = second compound 0.316 µM, first compound 0.316 µM
[16] = second compound 0.316 µM, first compound 1 µM
[17] = second compound 0.316 µM, first compound 3.16 µM
[18] = second compound 0.316 µM, first compound 10 µM
[19] = second compound 1 µM, first compound 0.0316 µM
[20] = second compound 1 µM, first compound 0.1 µM
[21] = second compound 1 µM, first compound 0.316 µM
[22] = second compound 1 µM, first compound 1 µM
[23] = second compound 1 µM, first compound 3.16 µM
[24] = second compound 1 µM, first compound 10 µM
[25] = second compound 3.16 µM, first compound 0.0316 µM
[26] = second compound 3.16 µM, first compound 0.1 µM
[27] = second compound 3.16 µM, first compound 0.316 µM
[28] = second compound 3.16 µM, first compound 1 µM
[29] = second compound 3.16 µM, first compound 3.16 µM
[30] = second compound 3.16 µM, first compound 10 µM
[31] = second compound 10 µM, first compound 0.0316 µM
[32] = second compound 10 µM, first compound 0.1 µM
[33] = second compound 10 µM, first compound 0.316 µM
[34] = second compound 10 µM, first compound 1 µM
[35] = second compound 10 µM, first compound 3.16 µM
[36] = second compound 10 µM, first compound 10 µM
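Also: spheroids exposed to compounds for 7 days.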

COc1cc2cc(C(=O)CCC(=O)O)sc2cc1OC + Nc1ccc(C#CCN(C(=O)Cc2ncc(C(F)(F)F)cc2C(F)(F)F)c2ccc(F)cc2)nn1
IC50 (second compound 0.0316 µM): > 10 µM
IC50 (second compound 0.1 µM): > 10 µM
IC50 (second compound 0.316 µM): > 10 µM
IC50 (second compound 1 µM): > 10 µM
IC50 (second compound 3.16 µM): > 10 µM
IC50 (second compound 10 µM): > 10 µM
viability, T/C [1]: 96.1%
viability, T/C [2]: 105%
viability, T/C [3]: 98.3%
viability, T/C [4]: 108%
viability, T/C [5]: 107%
viability, T/C [6]: 100%
viability, T/C [7]: 103%
viability, T/C [8]: 106%
viability, T/C [9]: 98.8%
viability, T/C [10]: 95.7%
viability, T/C [11]: 101%
viability, T/C [12]: 88.8%
viability, T/C [13]: 101%
viability, T/C [14]: 95.3%
viability, T/C [15]: 90%
viability, T/C [16]: 109%
viability, T/C [17]: 97.6%
viability, T/C [18]: 86.3%
viability, T/C [19]: 94.9%
viability, T/C [20]: 95.2%
viability, T/C [21]: 94.4%
viability, T/C [22]: 92.4%
viability, T/C [23]: 103%
viability, T/C [24]: 88.9%
viability, T/C [25]: 91.1%
viability, T/C [26]: 94.5%
viability, T/C [27]: 103%
viability, T/C [28]: 94.1%
viability, T/C [29]: 104%
viability, T/C [30]: 86.4%
viability, T/C [31]: 107%
viability, T/C [32]: 97.3%
viability, T/C [33]: 92.7%
viability, T/C [34]: 96.8%
viability, T/C [35]: 114%
viability, T/C [36]: 96%

O=C(Nc1ccc(O)c(NS(=O)(=O)c2ccc(F)cc2)c1)c1ccc(-c2ccccc2)cc1 + Nc1ccc(C#CCN(C(=O)Cc2ncc(C(F)(F)F)cc2C(F)(F)F)c2ccc(F)cc2)nn1
IC50 (second compound 0.0316 µM): > 10 µM
IC50 (second compound 0.1 µM): > 10 µM
IC50 (second compound 0.316 µM): > 10 µM
IC50 (second compound 1 µM): > 10 µM
IC50 (second compound 3.16 µM): > 10 µM
IC50 (second compound 10 µM): > 10 µM
viability, T/C [1]: 97.8%
viability, T/C [2]: 94.2%
viability, T/C [3]: 97.4%
viability, T/C [4]: 97.6%
viability, T/C [5]: 110%
viability, T/C [6]: 93.3%
viability, T/C [7]: 102%
viability, T/C [8]: 95.3%
viability, T/C [9]: 112%
viability, T/C [10]: 101%
viability, T/C [11]: 111%
viability, T/C [12]: 96.4%
viability, T/C [13]: 103%
viability, T/C [14]: 93.2%
viability, T/C [15]: 94.7%
viability, T/C [16]: 103%
viability, T/C [17]: 110%
viability, T/C [18]: 93.4%
viability, T/C [19]: 110%
viability, T/C [20]: 99.4%
viability, T/C [21]: 78.1%
viability, T/C [22]: 98.3%
viability, T/C [23]: 101%
viability, T/C [24]: 92.1%
viability, T/C [25]: 97.1%
viability, T/C [26]: 91%
viability, T/C [27]: 87.3%
viability, T/C [28]: 104%
viability, T/C [29]: 108%
viability, T/C [30]: 95.7%
viability, T/C [31]: 91.2%
viability, T/C [32]: 98.4%
viability, T/C [33]: 103%
viability, T/C [34]: 98.6%
viability, T/C [35]: 108%
viability, T/C [36]: 86.4%
